According to patent publication US12473250B2, “Molecular design of new antibiotics and antibiotic adjuvants against MCR strains” (priority 2019, dated 2025):
Values after ≈ are worked out from the molar mass of the structure shown. Where two headings read alike, the source gives them in different places.

How the values were obtained:
[1] = tested on: KLPN multi-drug resistant strains; assay: MIC against multi-drug resistant strains (Table 5); type: cell-based, Klebsiella pneumonia; settings: Klebsiella pneumoniae, alone, read-out: MIC
Experimental: (§1) MIC experiments of the antimicrobial agents were determined by a modified broth microdilution method in accordance with the Clinical and Laboratory Standards Institute (CLSI) guidelines using 96 well culture plates. In brief, serial dilutions of all plates were prepared at different concentrations (μg). The inoculum suspension was prepared by adding isolated colonies from a 18-20 hours on TSA plate into phosphate buffer (0.31 mM, pH 7.2) or in water for injection (BBraun) and adjusting the suspension to a turbidity equivalent to 0.5 McFarland Standard. Each well contained a final bacterial concentration of approximately 5×10^5 colony forming units (CFU)/mL. The plate was covered and incubated at 35° C. for 24 hours. […] For the microdilution plates, turbidity in wells can be measured at OD600 using TECAN infinite M200Pro. MIC was determined as […] concentration that gives a 99 percent inhibition.

[2] = tested on: ACBA multi-drug resistant strains; assay: MIC against multi-drug resistant strains (Table 5); type: cell-based, Acinetobacter baumannii; settings: Acinetobacter baumannii, alone, read-out: MIC
Experimental: as §1

[3] = tested on: ENT CLOACAE multi-drug resistant strains; assay: MIC against multi-drug resistant strains (Table 5); type: cell-based, E. cloacae; settings: Enterobacter cloacae, alone, read-out: MIC
Experimental: as §1

[4] = tested on: colistin resistant MCR (+) E. Coli strains; assay: MIC, broth microdilution, compound alone; type: cell-based; settings: compound alone
Summary of the method: (§2)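 Modified CLSI broth microdilution; inoculum from 18–20 h TSA colonies adjusted to 0.5 McFarland, ~5×10^5 CFU/mL per well. Plates incubated 24 h at 35 °C; turbidity may be read at OD600. MIC defined as concentration giving 99% inhibition.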

[5] = tested on: colistin resistant MCR (−) E. Cloacae strain 7023456439; assay: MIC, broth microdilution, compound alone; type: cell-based; settings: strain 7023456439 E. Cloacae
Summary of the method: as §2

[6] = tested on: colistin resistant MCR (−) E. Coli strains; assay: MIC, broth microdilution, compound alone; type: cell-based
Summary of the method: as §2

[7] = tested on: colistin resistant MCR (+) E. Coli strains; assay: Synergy study: colistin MIC in the presence of compound; type: cell-based
Summary of the method: (§3)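 CLSI broth microdilution with colistin and LC compound added in equal amounts, 2-fold serial dilution, alone or combined at fixed synergy concentration. MIC taken as lowest concentration with no visible growth after 24 hours of incubation.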

[8] = tested on: colistin resistant MCR (−) E. Cloacae strain 7023456439; assay: as above; type: cell-based; settings: strain 7023456439 E. Cloacae
Summary of the method: as §3

[9] = tested on: colistin resistant MCR (−) E. Coli strains; assay: as above; type: cell-based
Summary of the method: as §3

[10] = strain 7028444207 (Table 1b), MCR (+)
[11] = strain 6075066346, MCR(+), compound at 2 μg
[12] = strain 6083655967, MCR(+), compound at 2 μg
[13] = strain 6103645107, MCR(+), compound at 2 μg
[14] = strain 6123520276, MCR(+), compound at 2 μg
[15] = strain 7013177695, MCR(+), compound at 2 μg
[16] = strain 7023436560, MCR(+), compound at 2 μg
[17] = strain 7023444207, MCR(+), compound at 2 μg
[18] = strain 6083672926, MCR(−), compound at 2 μg
[19] = strain 7023446108, MCR(−), compound at 2 μg
[20] = strain 7033607097, MCR(−), compound at 2 μg
[21] = strain 6075066346, MCR(+), compound at 10 μg (Table 2a: 10 ug/ml)
[22] = strain 6083655967, MCR(+), compound at 10 μg (Table 2a: 10 ug/ml)
[23] = strain 6103645107, MCR(+), compound at 10 μg (Table 2a: 10 ug/ml)
[24] = strain 6123520276, MCR(+), compound at 10 μg (Table 2a: 10 ug/ml)
[25] = strain 7013177695, MCR(+), compound at 10 μg (Table 2a: 10 ug/ml)
[26] = strain 7023436560, MCR(+), compound at 10 μg (Table 2a: 10 ug/ml)
[27] = strain 7023444207, MCR(+), compound at 10 μg (Table 2a: 10 ug/ml)
[28] = compound at 10 μg (Table 2a: 10 ug/ml)
[29] = strain 6083672926, MCR(−), compound at 10 μg (Table 2a: 10 ug/ml)
[30] = strain 7023446108, MCR(−), compound at 10 μg (Table 2a: 10 ug/ml)
[31] = strain 7033607097, MCR(−), compound at 10 μg (Table 2a: 10 ug/ml)

Compound	MIC ([4]; strain 6075066346, MCR (+)) [µg/mL]	MIC ([4]; strain 6083655967, MCR (+)) [µg/mL]	MIC ([4]; strain 6103645107, MCR (+)) [µg/mL]	MIC ([4]; strain 6123520276, MCR (+)) [µg/mL]	MIC ([4]; strain 7013177695, MCR (+)) [µg/mL]	MIC ([4]; strain 7023436560, MCR (+)) [µg/mL]	MIC [4, 10] [µg/mL]	MIC [5] [µg/mL]	MIC ([6]; strain 6083672926, MCR (−)) [µg/mL]	MIC ([6]; strain 7023446108, MCR (−)) [µg/mL]	MIC ([6]; strain 7033607097, MCR (−)) [µg/mL]	Colistin MIC in the presence of the compound [7, 11] [µg/mL]	Colistin MIC in the presence of the compound [7, 12] [µg/mL]	Colistin MIC in the presence of the compound [7, 13] [µg/mL]	Colistin MIC in the presence of the compound [7, 14] [µg/mL]	Colistin MIC in the presence of the compound [7, 15] [µg/mL]	Colistin MIC in the presence of the compound [7, 16] [µg/mL]	Colistin MIC in the presence of the compound [7, 17] [µg/mL]	Colistin MIC in the presence of the compound ([8]; compound at 2 μg) [µg/mL]	Colistin MIC in the presence of the compound [9, 18] [µg/mL]	further results
NCC[C@H](O)C(=O)N[C@@H]1C[C@H](N)[C@@H](O[C@H]2O[C@H](CN)[C@@H](O)[C@H](O)[C@H]2O)[C@H](O)[C@H]1O[C@H]1O[C@H](CO)[C@@H](O)[C@H](N)[C@H]1O [Amikacin]	–	–	–	–	–	–	–	–	–	–	–	–	–	–	–	–	–	–	–	–	MIC ([1]; strain KLPN 8852): 12.5 µg/mL (≈ 21.3 µM); MIC ([1]; strain KLPN 15588): > 50 µg/mL; MIC ([1]; strain KLPN 24076): 3.12 µg/mL (≈ 5.34 µM); MIC ([1]; strain KLPN 27025): 3.12 µg/mL (≈ 5.34 µM); MIC ([2]; ATCC19606, strain ACBA ATCC 19606): 12.5 µg/mL (≈ 21.3 µM); MIC ([2]; strain ACBA 1010): 1.56 µg/mL (≈ 2.66 µM); MIC ([2]; strain ACBA 1012): > 50 µg/mL; MIC ([2]; strain ACBA 43357): 50 µg/mL (≈ 85.4 µM); MIC ([3]; strain ENT CLOACAE 6780): > 50 µg/mL; MIC ([3]; strain ENT CLOACAE 21489): 0.78 µg/mL (≈ 1.33 µM); MIC ([3]; strain ENT CLOACAE 30063): 25 µg/mL (≈ 42.7 µM); MIC ([3]; strain ENT CLOACAE 44095): 25 µg/mL (≈ 42.7 µM)
CC(C)=CCc1c(OCCCCC[N+](C)(C)C)ccc(C(=O)/C=C/c2ccc(OCCCCC[N+](C)(C)C)cc2)c1O [LC311]	3.125	3.125	3.125	6.25	6.25	3.125	3.125	6.25	3.125	3.125	6.25	0.78	0.39	0.39	0.39	0.78	0.39	0.39	>12.5	0.39	Colistin MIC in the presence of the compound [9, 19]: 0.78 µg/mL; Colistin MIC in the presence of the compound [9, 20]: 0.195 µg/mL
Cc1cc(OCCCCC[N+](C)(C)C)cc(OCCCCC[N+](C)(C)C)c1 [LC310]	>50	>50	>50	>50	>50	>50	>50	>50	>50	>50	>50	–	–	–	–	–	–	–	–	–	Colistin MIC in the presence of the compound [7, 21]: 6.25 µg/mL; Colistin MIC in the presence of the compound [7, 22]: 6.25 µg/mL; Colistin MIC in the presence of the compound [7, 23]: 6.25 µg/mL; Colistin MIC in the presence of the compound [7, 24]: 6.25 µg/mL; Colistin MIC in the presence of the compound [7, 25]: 6.25 µg/mL; Colistin MIC in the presence of the compound [7, 26]: 6.25 µg/mL; Colistin MIC in the presence of the compound [7, 27]: 6.25 µg/mL; Colistin MIC in the presence of the compound [8, 28]: 6.25 µg/mL; Colistin MIC in the presence of the compound [9, 29]: 6.25 µg/mL; Colistin MIC in the presence of the compound [9, 30]: 6.25 µg/mL; Colistin MIC in the presence of the compound [9, 31]: 6.25 µg/mL
CC(C)=CCc1c(OCCCC[n+]2ccn(C)c2)ccc(C(=O)/C=C/c2ccc(OCCCC[n+]3ccn(C)c3)cc2)c1O [LC350]	3.125	3.125	3.125	3.125	3.125	3.125	–	>50	3.125	3.125	3.125	0.195	0.195	0.195	0.195	0.195	0.195	0.195	>12.5	0.195	MIC ([4]; strain 7023444207, MCR (+)): 3.125 µg/mL; Colistin MIC in the presence of the compound [9, 19]: 0.195 µg/mL; Colistin MIC in the presence of the compound [9, 20]: 0.195 µg/mL
CN(C)CCCN(CCCCOc1ccc(C2COc3c(ccc4c3C=CC(C)(C)O4)C2)c(OCCCCN(CCCN(C)C)CCCN(C)C)c1)CCCN(C)C (stereo not shown) [LC095]	50 (≈ 61.9 µM)	50 (≈ 61.9 µM)	25 (≈ 31 µM)	50 (≈ 61.9 µM)	25 (≈ 31 µM)	25 (≈ 31 µM)	–	>50	25 (≈ 31 µM)	25 (≈ 31 µM)	25 (≈ 31 µM)	–	–	–	–	–	–	–	–	–	MIC ([4]; strain 7023444207, MCR (+)): 25 µg/mL (≈ 31 µM); Colistin MIC in the presence of the compound [7, 21]: 3.125 µg/mL; Colistin MIC in the presence of the compound [7, 22]: 3.125 µg/mL; Colistin MIC in the presence of the compound [7, 23]: 3.125 µg/mL; Colistin MIC in the presence of the compound [7, 24]: 1.56 µg/mL; Colistin MIC in the presence of the compound [7, 25]: 3.125 µg/mL; Colistin MIC in the presence of the compound [7, 26]: 3.125 µg/mL; Colistin MIC in the presence of the compound [7, 27]: 1.56 µg/mL; Colistin MIC in the presence of the compound [8, 28]: >12.5 µg/mL; Colistin MIC in the presence of the compound [9, 29]: 12.5 µg/mL; Colistin MIC in the presence of the compound [9, 30]: 3.125 µg/mL; Colistin MIC in the presence of the compound [9, 31]: 3.125 µg/mL
